Test systems include A498; A549; ACHN; CCRF-CEM; HCT-116; HL-60; HOP-62; IGROV-1; K562; KM12; LOX IMVI; NCI-H460; OVCAR-3; OVCAR-8; SK-MEL-2; SNB-75; T47D; UACC-62; M14.
What all share (assay): NCI-60 cell line screen, 48 h

The results in this text go back to ChEMBL document CHEMBL1201862, “PubChem BioAssay data set” (2004).

The structures appear in SMILES notation.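 Test compounds were applied to cells in 96-well plates for 48 hours at 5 doses. Here, GI50 denotes the concentration required for 50% inhibition of growth.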 Activity calls are given as the source filed them. Rule as the data show it: active = GI50 up to about 1.1 µM and inactive = higher. Where a SMILES comes first, the peptide text is derived from it. The star is where a group is joined. Boc = CC(C)(C)OC(=O)*; OBn = c1ccc(CO*)cc1

As for `O=S1(=O)c2ccccc2C(Nc2ccccc2)N1c1ccccc1` (stereo not drawn), the GI50 was > 100 µM (inactive) in the assay with A498; 56.8 µM (inactive) with A549; > 100 µM (inactive) in the assay with ACHN; 63.4 µM (inactive) with CCRF-CEM; > 100 µM (inactive) in the assay with HCT-116; 85.7 µM (inactive) with HL-60. The GI50 in the assay on HOP-62 was > 100 µM (inactive); in the assay with IGROV-1 it was 36.9 µM (inactive); in the assay with K562 it was 27.6 µM (inactive); in the assay with KM12, 72.3 µM (inactive); with LOX IMVI, > 100 µM (inactive); with NCI-H460, 72.9 µM (inactive). For the same compound, the GI50 in the assay with OVCAR-3 was > 100 µM (inactive); with OVCAR-8, > 100 µM (inactive); in the assay on SK-MEL-2 it was 98.6 µM (inactive); with SNB-75 it was > 100 µM (inactive); in the assay with T47D it was 24.5 µM (inactive); in the assay with UACC-62, > 100 µM (inactive).

In the case of `COC(=O)CN(CC1O[C@@H]2OC(C)(C)O[C@@H]2C1N=[N+]=[N-])C(=O)OCc1ccccc1` (stereo partly drawn), the GI50 in the assay on A498 was > 100 µM (inactive); in the assay on A549, > 100 µM (inactive); with ACHN, > 100 µM (inactive); in the assay on HCT-116, > 100 µM (inactive); with HL-60, 69.3 µM (inactive); with HOP-62, > 100 µM (inactive). Moreover, the GI50 in the assay on IGROV-1 was > 100 µM (inactive); in the assay on K562, 57 µM (inactive); in the assay on KM12 it was > 100 µM (inactive); in the assay on LOX IMVI, > 100 µM (inactive); with M14, > 100 µM (inactive); with NCI-H460 it was > 100 µM (inactive). For the same compound, the GI50 in the assay on OVCAR-3, in the assay with OVCAR-8, with SK-MEL-2, in the assay on SNB-75, in the assay with T47D and with UACC-62 was > 100 µM (inactive) throughout.

With `CCc1nnc(S)n1/N=C\c1ccc(-c2ccccc2[N+](=O)[O-])o1`, the GI50 is 49.4 µM (inactive) in the assay with A498; 42.9 µM (inactive) in the assay with A549; 52.5 µM (inactive) in the assay on ACHN; 42.1 µM (inactive) in the assay on CCRF-CEM; 32.3 µM (inactive) in the assay with HCT-116; 35.6 µM (inactive) in the assay with HL-60. In addition, the GI50 in the assay with HOP-62 was 56.5 µM (inactive); in the assay with IGROV-1 it was 31.7 µM (inactive); in the assay with K562, 27.9 µM (inactive); in the assay with KM12, 31.8 µM (inactive); in the assay with LOX IMVI, 28 µM (inactive); with M14 it was 39.7 µM (inactive). The GI50 in the assay on OVCAR-3 was 18.2 µM (inactive); in the assay on OVCAR-8, 33.1 µM (inactive); in the assay with SK-MEL-2, 29.4 µM (inactive); with SNB-75, 32.1 µM (inactive); in the assay on T47D it was 43.9 µM (inactive); in the assay on UACC-62, 37.6 µM (inactive).

`CCOC(=O)c1cc(Br)c(-c2onc(C)c2Br)[nH]1`: the GI50 is 48.2 µM (inactive) in the assay on A498; 56.1 µM (inactive) with A549; > 100 µM (inactive) in the assay on CCRF-CEM; 28.8 µM (inactive) with HCT-116; > 100 µM (inactive) in the assay with HL-60; 18.3 µM (inactive) with HOP-62. The GI50 is 40.2 µM (inactive) in the assay with IGROV-1; > 100 µM (inactive) with K562; > 100 µM (inactive) with KM12; 98.6 µM (inactive) with LOX IMVI; 66.2 µM (inactive) in the assay with M14; 65.6 µM (inactive) with NCI-H460. Moreover, the GI50 in the assay on OVCAR-3 was > 100 µM (inactive); in the assay with OVCAR-8, 27.6 µM (inactive); in the assay on SK-MEL-2 it was 80.7 µM (inactive); in the assay on SNB-75, > 100 µM (inactive); with T47D it was > 100 µM (inactive); in the assay on UACC-62 it was 36.9 µM (inactive).

Take `COn1cc(C=O)c2ccccc21`: the GI50 in the assay on A498 was 1.95 µM (inactive); in the assay with A549, > 67 µM (inactive); in the assay on ACHN, 32.7 µM (inactive); in the assay with HCT-116 it was > 59 µM (inactive); in the assay on HL-60 it was 0.551 µM (active); in the assay with HOP-62 it was 81.3 µM (inactive). The GI50 is > 62.8 µM (inactive) in the assay on IGROV-1; 53.5 µM (inactive) with K562; 23.9 µM (inactive) in the assay on KM12; > 65.2 µM (inactive) in the assay on LOX IMVI; > 61.8 µM (inactive) in the assay on M14; 35.1 µM (inactive) in the assay with NCI-H460. Further, the GI50 with OVCAR-3 was 36.6 µM (inactive); in the assay with OVCAR-8 it was > 93.8 µM (inactive); in the assay with SK-MEL-2, > 91.8 µM (inactive); in the assay on SNB-75, 33.7 µM (inactive); with T47D, 65.8 µM (inactive); in the assay with UACC-62, 41 µM (inactive).

Turning to `Cc1c2cccc-2c(OCCOC(=O)n2ccnc2)cc2c1[nH]c1ccccc12`, the GI50 is 6.52 µM (inactive) in the assay with A498; 3.42 µM (inactive) in the assay on A549; 2.56 µM (inactive) in the assay on ACHN; 3.33 µM (inactive) with HCT-116; 2.12 µM (inactive) in the assay on HL-60; 5.48 µM (inactive) in the assay on HOP-62. The GI50 in the assay on IGROV-1 was 1.77 µM (inactive); in the assay with K562 it was 4.01 µM (inactive); in the assay with KM12 it was 2.14 µM (inactive); with LOX IMVI it was 1.89 µM (inactive); in the assay with M14, 3.46 µM (inactive); in the assay with NCI-H460 it was 3.9 µM (inactive). Moreover, the GI50 with OVCAR-3 is 1.89 µM (inactive); with OVCAR-8, 2.18 µM (inactive); in the assay on SK-MEL-2, 1.98 µM (inactive); with SNB-75, 1.04 µM (active); in the assay on T47D, 2.49 µM (inactive); in the assay with UACC-62, 2.62 µM (inactive).

In the case of `Cc1c(C)c(S(=O)(=O)N(CCCCCON)OCCCN)c(C)c2c1OC(C)(C)CC2`, the GI50 in the assay with A498 was 14.6 µM (inactive); in the assay on A549 it was 13.4 µM (inactive); with ACHN, 16.4 µM (inactive); in the assay with HCT-116, 14.8 µM (inactive); with HL-60, 5.74 µM (inactive); in the assay with HOP-62 it was 16 µM (inactive). The GI50 in the assay on IGROV-1 is 10 µM (inactive); in the assay with K562 it was 3.94 µM (inactive); in the assay on KM12 it was 13.9 µM (inactive); with LOX IMVI, 9.73 µM (inactive); in the assay with M14, 7 µM (inactive); in the assay with NCI-H460 it was 9.93 µM (inactive). In addition, the GI50 with OVCAR-3 was 14.5 µM (inactive); in the assay on OVCAR-8, 11 µM (inactive); in the assay on SK-MEL-2, 15.4 µM (inactive); in the assay on SNB-75, 14.3 µM (inactive); with T47D it was 5 µM (inactive); in the assay with UACC-62, 14.3 µM (inactive).

`COc1ccc(CNc2nc3ccccc3nc2C(=O)O)cc1`: the GI50 with A498 is > 100 µM (inactive); in the assay with A549 it was > 100 µM (inactive); in the assay on CCRF-CEM, 83.4 µM (inactive); in the assay on HCT-116 it was 51.6 µM (inactive); with HL-60, 95.7 µM (inactive); in the assay with HOP-62, > 100 µM (inactive). Further, the GI50 with IGROV-1 is > 100 µM (inactive); with K562 it was 93.3 µM (inactive); in the assay on KM12, 65.6 µM (inactive); in the assay on LOX IMVI, 45.4 µM (inactive); in the assay with M14, > 100 µM (inactive); with NCI-H460, 55.5 µM (inactive). The GI50 in the assay with OVCAR-3 was > 100 µM (inactive); in the assay on OVCAR-8, > 100 µM (inactive); in the assay with SK-MEL-2, > 100 µM (inactive); in the assay on SNB-75, 93.8 µM (inactive); in the assay with T47D, 65.3 µM (inactive); in the assay on UACC-62, > 100 µM (inactive).

Turning to `Cc1cc(S(=O)(=O)Nc2cc(N)n[nH]2)c(SCc2nc(N)nc(N(C)C)n2)cc1Cl`, the GI50 with A498, in the assay on A549, with ACHN, with CCRF-CEM, with HCT-116 and in the assay on HL-60 was > 10 µM (inactive) in each case. Further, the GI50 in the assay with HOP-62, in the assay on IGROV-1, in the assay on K562, with KM12, with LOX IMVI and in the assay with M14 was > 10 µM (inactive) each time. In addition, the GI50 in the assay with NCI-H460, in the assay with OVCAR-3, with OVCAR-8, in the assay with SK-MEL-2, in the assay on SNB-75 and in the assay on T47D was > 10 µM (inactive) each time.

On to `NCC(=O)Nc1ccc(S(=O)(=O)O)c2cc(S(=O)(=O)O)cc(S(=O)(=O)O)c12`, for which the GI50 in the assay on A498, in the assay on A549, in the assay on ACHN, with CCRF-CEM, in the assay on HCT-116 and in the assay with HL-60 was > 100 µM (inactive) each time. The GI50 in the assay with HOP-62, with IGROV-1, in the assay with K562, with KM12, in the assay on LOX IMVI and with M14 was > 100 µM (inactive) in each case. Moreover, the GI50 in the assay with OVCAR-3, with OVCAR-8, with SK-MEL-2, with SNB-75, in the assay with T47D and in the assay with UACC-62 was > 100 µM (inactive) each time.

Consider `CC(NC(=O)C(Cc1ccccc1)NC(=O)C(Cc1ccccc1)NC(=O)OC(C)(C)C)C(=O)OCc1ccccc1` (stereo not drawn) (Boc-Phe-Phe-Ala-OBn; configuration not given here), for which the GI50 was > 100 µM (inactive) in the assay with A498; > 100 µM (inactive) in the assay with A549; 58.3 µM (inactive) in the assay on CCRF-CEM; 76.9 µM (inactive) in the assay on HCT-116; 31.8 µM (inactive) with HL-60; > 100 µM (inactive) in the assay with HOP-62. Moreover, the GI50 in the assay on IGROV-1 is > 100 µM (inactive); in the assay with K562, 64.3 µM (inactive); with KM12, > 100 µM (inactive); with LOX IMVI, > 100 µM (inactive); in the assay with M14, 48.4 µM (inactive); in the assay with NCI-H460 it was > 100 µM (inactive). Besides, the GI50 is > 100 µM (inactive) in the assay on OVCAR-3; > 100 µM (inactive) in the assay on OVCAR-8; > 100 µM (inactive) in the assay on SK-MEL-2; 50.8 µM (inactive) in the assay on SNB-75; > 100 µM (inactive) with T47D; 49.4 µM (inactive) in the assay on UACC-62.
